Series [1] relates to DLD-1 BRCA2(-/-) cells. Description: Inhibition of proliferation of DLD-1 BRCA2(-/-) cells (CTG method). Format: cell-based. The note with it: Homo sapiens, DLD-1, 168 h; 7 days incubation, CellTiter-Glo. In a few lines: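 DLD-1 BRCA2(-/-) cells, 1,000 per well, attached overnight, then exposed to compound at final 10000 to 0.152 nM (4-fold series) in triplicate for 7 days at 37 °C, 5% CO2. Viability by CellTiter-Glo luminescence; IC50 for proliferation inhibition from a fitted curve.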
A general note: Cellular ATP, detected with luciferase, serves as a proxy for viable cell number.

Series [2] concerns MDA-MB-436 cells. The series is described as follows: Inhibition of proliferation of MDA-MB-436 cells (CellTiter-Glo). It counts as cell-based. To be noted: Homo sapiens, MDA-MB-436, 168 h, 7 days incubation. Put shortly:
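MDA-MB-436 cells seeded at 500-1000 cells/well, allowed to attach overnight, then treated with 9 concentrations from 10000 to 0.152 nM final (4-fold steps) in triplicate for 7 days at 37°C, 5% CO2. Viability by CellTiter-Glo luminescence; IC50 from fitted curve.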

A short description of series [3]: in vivo. To be noted: SD, rat.
Method: (§1) The compounds of the present invention were administered to test animals in the form of 5% DMSO + 30% PEG400 + 65% physiological saline, 10% DMSO + 10% Kolliphor HS15 + 80% Saline, 10% DMSO + 89% (25% SBE-B-CD) + (2% HCl), 20% PEG400 + 80% sterile water for injection, or 10% DMA+ 10% HS15 + 30% PEG400 + 50% sterile aqueous solution for injection. Animals were fasted for 12 hours before administration but had free access to water. For the intravenous administration group, the dose was 1 mg/kg. Blood samples (approximately 0.15 mL) were collected intravenously at the following time points after administration: 0.083, 0.25, 0.5, 1.0, 2.0, 4.0, 6.0, 8.0 and 24 h (dogs) or 0.083, 0.25, 0.5, 1.0, 2.0, 5.0, 7.0 and 24 h (mice and rats) or 0.083, 0.25, 0.5, 1.0, 2.0, 6.0, 8.0 and 24 h (monkeys). EDTA-K2 was pre-added to the blood collection tube as an anticoagulant. The blood samples were centrifuged at 12,000 rpm for 2 minutes, and plasma was collected and stored at -20 °C or - 70 °C. For the gavage administration group, the dosage was 1 mg/kg (mice, dogs, and monkeys) or 5 mg/kg (rats). After administration, venous blood samples (approximately 0.15 mL) were collected at the following time points: 0.25, 0.5, 1.0, 2.0, 4.0, 6.0, 8.0, and 24 h (dogs) or 0.25, 0.5, 1.0, 2.0, 5.0, 7.0, and 24 h (mice and rats) or 0.25, 0.5, 1.0, 2.0, 6.0, 8.0, and 24 h (monkeys). EDTA-K2 was pre-added to the blood collection tube as an anticoagulant. The blood samples were centrifuged at 12,000 rpm for 2 minutes, and plasma was collected and stored at -20 °C or -70 °C.
(§2) The collected plasma samples were processed (frozen plasma was thawed at room temperature, vortexed for 15 s to mix, 10-20 µL of plasma was taken, 120-150 µL of acetonitrile solution containing internal standard was added, vortexed for 5 min to mix, centrifuged at 4,000 rpm for 5 min, 100 µL of supernatant was taken, and 120-150 Ml/water (v/v = 1/1) was added and mixed). The concentration of compounds in the plasma was then analyzed by LC-MS/MS.
(§3) Table D Pharmacokinetic parameters of compounds of the present invention in SD rats
Series [4] in a line: in vivo. To be noted: BALB/c, mouse.
Method: as §1, §2
The nature of series [5]: Pharmacokinetics in SD rats after intravenous injection or gavage. The note with it: rat, plasma.
Method: as §1, §2, §3
The target in series [6] is PARP1 (Homo sapiens, UniProt P09874). The series is described as follows: Inhibition of PARP1 enzyme activity (ELISA, chemiluminescence). Format: biochemical. To be noted: for IC50: ELISA, histone-coated plate, NAD+, 60 min at 25 °C; for Selectivity PARP2/PARP1: ratio of PARP2 IC50 to PARP1 IC50.
Series [7] deals with PARP2 (Homo sapiens, UniProt Q9UGN5). Description: biochemical.
Method: Experimental Objective: To evaluate the inhibitory effect of the compounds of the present invention on the enzyme activities of PARP1 and PARP2 using ELISA.
• 1. histone-coated 384-well plates was prepared: 25 µL of histone solution was added to each well and incubated overnight at 4 °C. • 2. PBST buffer, blocking buffer (PBS buffer with 5% BSA and 0.05% Tween-20 added) and detection buffer (20 mM HEPES pH 7.5 + 100 mM NaCl + 2 mM DTT + 0.002% Tween-20 + 0.1% BSA) were prepared. • 3. The histone-coated 3 84-well plate was washed three times with PBST buffer, blocked at room temperature with 50 µL blocking buffer for 1 hour, and then washed three times with PBST buffer. • 4. Test compounds were prepared as 2000-fold stock solutions in DMSO. 50 nL of the stock solution was mixed with 19.95 µL detection buffer, and 5 µL of the gradient-diluted test compound was transferred to each well. • 5. Enzymatic reaction (PARP1): PARP1 & DNA mix was pre-incubated at 25 °C for 10 minutes. 10 µL of the PARP1 & DNA mix was added to each well and incubated with the test compound at room temperature for 10 minutes. […] Finally, the 384-well plate was washed three times with PBST buffer. Enzymatic reaction (PARP2): PARP2 was pre-incubated at 25 °C for 10 minutes. 10 µL of PARP2 was added to each well and incubated with the test compound at room temperature for 10 minutes. […] Finally, the 384-well plate was washed three times with PBST buffer. • 6. Detection (PARP1): 20 µL of anti-Poly/Mono-ADP Ribose Rabbit mAb was added and incubated at room temperature for 1.5 hours, followed by three washes of the 384-well plate with PBST buffer. Then, 20 µL of diluted anti-rabbit IgG, HRP-linked Antibody (diluted 1:2000 in blocking buffer) was added and incubated at room temperature for 1 hour. After washing the plate three times with PBST buffer, 25 µL of a 1:1 mixture of Femto-ECL Substrate A and Femto-ECL Substrate B was added. Detection (PARP2): 25 µL of Strep-HRP was added and incubated at room temperature for 1 hour, followed by three washes of the 384-well plate with PBS buffer. Then, 25 µL of a 1:1 mixture of Femto-ECL Substrate A and Femto-ECL Substrate B was added. • 7. Chemiluminescence intensity was measured using an Envision multimode microplate reader. • 8. Data Processing
The inhibition rate was calculated in Excel using formula (1). inh% = (Max−Signal)/(Max−Min)*100 [formula]
The IC50 value was obtained by fitting the data in XL-Fit using formula (2). Y = bottom + (top−bottom)/(1+(IC50/X)*HillSlope); [formula] wherein Y is the inhibition percentage and X is the compound concentration.
The nature of series [8]: Pharmacokinetics in mice after intravenous injection or gavage. To be noted: BALB/c, mouse, plasma.
Method: as §1, §2

The values below come from patent publication EP4755880A1, “SUBSTITUTED NITROGEN-CONTAINING BICYCLIC COMPOUND AND USE THEREOF” (Sunshine Lake Pharma Co., Ltd., priority 2023, dated 2025).

PARP1, sequence (P09874 whole entry): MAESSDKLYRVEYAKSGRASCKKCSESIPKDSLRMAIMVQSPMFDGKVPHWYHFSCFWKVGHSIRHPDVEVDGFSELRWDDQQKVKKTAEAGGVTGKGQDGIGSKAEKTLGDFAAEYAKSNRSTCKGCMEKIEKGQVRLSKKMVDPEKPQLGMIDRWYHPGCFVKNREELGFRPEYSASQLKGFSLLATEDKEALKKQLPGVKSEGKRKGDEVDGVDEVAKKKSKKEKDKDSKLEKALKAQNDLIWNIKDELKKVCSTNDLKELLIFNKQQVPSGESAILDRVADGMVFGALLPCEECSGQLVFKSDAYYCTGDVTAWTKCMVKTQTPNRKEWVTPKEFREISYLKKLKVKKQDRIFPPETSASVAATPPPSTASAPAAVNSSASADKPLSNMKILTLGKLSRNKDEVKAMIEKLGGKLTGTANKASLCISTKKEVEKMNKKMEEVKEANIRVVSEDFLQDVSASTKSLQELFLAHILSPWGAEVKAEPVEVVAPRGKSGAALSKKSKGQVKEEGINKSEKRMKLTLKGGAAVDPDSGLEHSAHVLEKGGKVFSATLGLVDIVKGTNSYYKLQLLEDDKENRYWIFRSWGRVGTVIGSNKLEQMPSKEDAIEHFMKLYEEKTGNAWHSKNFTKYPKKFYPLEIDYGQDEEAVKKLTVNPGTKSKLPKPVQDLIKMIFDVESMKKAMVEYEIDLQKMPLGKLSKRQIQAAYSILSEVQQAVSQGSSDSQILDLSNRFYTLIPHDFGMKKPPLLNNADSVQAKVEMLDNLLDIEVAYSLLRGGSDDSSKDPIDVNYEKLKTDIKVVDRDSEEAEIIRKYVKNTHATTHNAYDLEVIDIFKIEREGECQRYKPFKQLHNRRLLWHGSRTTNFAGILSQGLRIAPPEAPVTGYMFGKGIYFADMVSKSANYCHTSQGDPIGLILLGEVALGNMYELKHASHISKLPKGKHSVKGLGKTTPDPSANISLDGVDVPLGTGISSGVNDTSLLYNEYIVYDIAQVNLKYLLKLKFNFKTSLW
PARP2, sequence (Q9UGN5 whole entry): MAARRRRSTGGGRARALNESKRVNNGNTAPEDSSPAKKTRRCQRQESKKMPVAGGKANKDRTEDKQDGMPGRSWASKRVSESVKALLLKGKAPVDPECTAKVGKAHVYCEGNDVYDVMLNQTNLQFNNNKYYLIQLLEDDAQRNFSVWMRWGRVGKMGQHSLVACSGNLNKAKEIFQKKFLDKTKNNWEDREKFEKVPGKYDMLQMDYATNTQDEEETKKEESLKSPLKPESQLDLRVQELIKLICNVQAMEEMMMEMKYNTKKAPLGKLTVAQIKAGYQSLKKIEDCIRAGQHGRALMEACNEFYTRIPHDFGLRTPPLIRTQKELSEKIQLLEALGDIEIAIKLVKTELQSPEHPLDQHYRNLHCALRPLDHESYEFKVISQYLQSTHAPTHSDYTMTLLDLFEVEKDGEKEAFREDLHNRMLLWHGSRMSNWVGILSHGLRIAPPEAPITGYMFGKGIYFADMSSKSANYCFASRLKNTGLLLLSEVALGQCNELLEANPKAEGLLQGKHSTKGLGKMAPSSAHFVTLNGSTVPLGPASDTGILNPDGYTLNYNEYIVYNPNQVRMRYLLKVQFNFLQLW

Usually IC50 stands for the midpoint of a concentration-inhibition curve. For orientation: AUC(0-t) means the area under the concentration-time curve up to a stated or last time point. The low end stands for low exposure, the high end for high exposure. As a reminder, the Cmax is the highest concentration seen after dosing. In general, half-life refers to the time needed for the level to fall by half in the phase considered. In the case of `CC#Cc1cc(CN2CC=C(c3ccc(C(=O)NC)nc3F)CC2)cc2[nH]c(=O)c(C)nc12` [Example 12, 2-fluoro-N-methyl-1'-((2-methyl-3-oxo-8-(prop-1-yn-1-yl)-3,4-dihydroquinoxalin-6-yl)methyl)-1',2',3',6'-tetrahydro-[3,4'-bipyridine]-6-carboxamide], the IC50 in series [1] stood at 1.9 nM; in series [2], 0.6 nM. Besides, the AUC(0-t) in series [3] (iv, 1 mg/kg) was determined as 1260 ng·h/mL; in series [3] (po, 5 mg/kg), 3770 ng·h/mL; in series [4] (iv, 2 mg/kg), 1430 ng·h/mL; in series [4] (po, 5 mg/kg), 4200 ng·h/mL. Moreover, the Cmax stood at 897 ng/mL in series [3] (iv, 1 mg/kg); 922 ng/mL in series [3] (po, 5 mg/kg); 1630 ng/mL in series [4] (iv, 2 mg/kg); 2110 ng/mL in series [4] (po, 5 mg/kg). In addition, the half-life in series [3] (iv, 1 mg/kg) is 2 h; in series [3] (po, 5 mg/kg), 2.4 h; in series [4] (iv, 2 mg/kg) it was 1.4 h; in series [4] (po, 5 mg/kg), 1.9 h.
For the compound `CC#Cc1cc(CN2CCN(c3ccc(C(=O)NC4CC4)nc3F)CC2)cc2[nH]c(=O)c(C)nc12` [Example 35, N-cyclopropyl-6-fluoro-5-(4-((2-methyl-3-oxo-8-(prop-1-yn-1-yl)-3,4-dihydroquinoxalin-6-yl)methyl)piperazin-1-yl)picolinamide], the IC50 was found to be 13 nM in series [1], 0.2 nM in series [2], 2 nM in series [6] and 90.2 nM in series [7]. Besides, the AUC(0-t) in series [5] (iv, 1 mg/kg) worked out at 5680 ng·h/mL; in series [5] (po, 5 mg/kg), 48300 ng·h/mL; in series [8] (iv, 2 mg/kg) it was 2750 ng·h/mL; in series [8] (po, 5 mg/kg), 4860 ng·h/mL. The maximum concentration (Cmax) in series [5] (iv, 1 mg/kg) was determined as 2230 ng/mL; in series [5] (po, 5 mg/kg), 4970 ng/mL; in series [8] (iv, 2 mg/kg), 3750 ng/mL; in series [8] (po, 5 mg/kg), 2760 ng/mL. The half-life in series [5] (iv, 1 mg/kg) was 2.4 h; in series [5] (po, 5 mg/kg), 2.8 h; in series [8] (iv, 2 mg/kg), 1.2 h; in series [8] (po, 5 mg/kg), 1.5 h. Besides, the “Selectivity PARP2/PARP1” value in series [6] is reported as 44.3.
Take `CC#Cc1cc(CN2CC=C(c3ccc(C(=O)NC4CC4)nc3F)CC2)c(F)c2[nH]c(=O)c(C)nc12` [Example 41, N-cyclopropyl-2-fluoro-1'-((5-fluoro-2-methyl-3-oxo-8-(prop-1-yn-1-yl)-3,4-dihydroquinoxalin-6-yl)methyl)-1',2',3',6'-tetrahydro-[3,4'-bipyridine]-6-carboxamide]: the IC50 is 37.4 nM in series [1], 11.8 nM in series [2], 3.1 nM in series [6] and above 10000 nM in series [7]. Further, the AUC(0-t) came out at 1670 ng·h/mL in series [5] (iv, 1 mg/kg); 7870 ng·h/mL in series [5] (po, 5 mg/kg); 2230 ng·h/mL in series [8] (iv, 2 mg/kg); 4630 ng·h/mL in series [8] (po, 5 mg/kg). Moreover, the Cmax in series [5] (iv, 1 mg/kg) turned out to be 1720 ng/mL; in series [5] (po, 5 mg/kg) it was 3130 ng/mL; in series [8] (iv, 2 mg/kg), 3150 ng/mL; in series [8] (po, 5 mg/kg) it was 2720 ng/mL. The half-life in series [5] (iv, 1 mg/kg) was 2.1 h; in series [5] (po, 5 mg/kg), 2.8 h; in series [8] (iv, 2 mg/kg) it was 1.3 h; in series [8] (po, 5 mg/kg) it was 1.9 h. In series [6], the “Selectivity PARP2/PARP1” value came out at 3254.4.
For the compound `Cc1nc2c(OC(F)F)cc(CN3CCN(c4ccc(C(=O)NC5CC5)nc4F)CC3)cc2[nH]c1=O` [Example 46, N-cyclopropyl-5-(4-((8-(ditluoromethoxy)-2-methyl-3-oxo-3,4-dihydroquinoxalin-6-yl)methyl)piperazin-1-yl)-6-fluoropicolinamide], the IC50 in series [1] was determined as 3.2 nM; in series [2] it was 0.2 nM; in series [6], 2.5 nM; in series [7], 64 nM. Besides, the AUC(0-t) in series [5] (iv, 1 mg/kg) came to 4500 ng·h/mL; in series [5] (po, 5 mg/kg), 21200 ng·h/mL; in series [8] (iv, 2 mg/kg), 11300 ng·h/mL; in series [8] (po, 5 mg/kg), 25300 ng·h/mL. In addition, the Cmax in series [5] (iv, 1 mg/kg) is 1410 ng/mL; in series [5] (po, 5 mg/kg), 2150 ng/mL; in series [8] (iv, 2 mg/kg) it was 6460 ng/mL; in series [8] (po, 5 mg/kg) it was 8750 ng/mL. For the same compound, the half-life in series [5] (iv, 1 mg/kg) was 3.2 h; in series [5] (po, 5 mg/kg), 3.4 h; in series [8] (iv, 2 mg/kg), 1.6 h; in series [8] (po, 5 mg/kg), 2 h. Further, in series [6], the “Selectivity PARP2/PARP1” value was determined as 25.0.
